In ChEMBL document CHEMBL3797139, “Synthesis and biological evaluation of 1,2-dithiol-3-thiones and pyrrolo[1,2-a]pyrazines as novel hypoxia inducible factor-1 (HIF-1) inhibitor” (Bioorg Med Chem, 2016):
Calls of active or inactive are those of the source. The calls are words filed in the database; no cut-off is given here.

Test system: not listed separately
Test: Cytotoxicity against human HCT116 cells at 10 uM
Assay type: cell-based
Details: hct-116, 10 µM
For `CCCCc1c(SC)c2cnccn2c1SC.Cl`, the Activity was “Non-toxic”. For `CSc1c(Cc2ccc(C)cc2)c(SC)n2ccncc12.Cl`, the Activity was “Toxic”. With `CCc1c(SC)c2cnccn2c1SC.Cl` the Activity was “Non-toxic”. In the case of `CCCc1c(SC)c2cnccn2c1SC.Cl`, the Activity is reported as “Non-toxic”. With `CSc1cc(SC)n2ccncc12.Cl` the Activity was “Non-toxic”. For `COc1ccc(Cc2c(SC)c3cnccn3c2SC)cc1.Cl`, the Activity was “Toxic”. In the case of `CSc1c(Cc2ccccc2)c(SC)n2ccncc12.Cl`, the Activity is reported as “Non-toxic”. With `CSc1c(C)c(SC)n2ccncc12.Cl` the Activity was “Non-toxic”. For `CSc1c(CCc2ccccc2)c(SC)n2ccncc12.Cl`, the Activity was “Toxic”. For `CSc1c(-c2ccccc2)c(SC)n2ccncc12.Cl`, the Activity was “Non-toxic”. In the case of `CSc1c(SC)c2cnccn2c1SC.Cl`, the Activity is reported as “Non-toxic”. In the case of `CSc1c(Cc2ccc(Cl)cc2)c(SC)n2ccncc12.Cl`, the Activity is reported as “Toxic”.

Test system: HCT-116
Test: Reduction of insulin-induced HIF-1 alpha target gene expression in human HCT116 cells assessed as decrease in Glut-1 expression at 10 uM by RT-PCR analysis
Assay type: functional
Details: not given
With `CCCc1c(SC)c2cnccn2c1SC.Cl` the inhibition was “Active”. In the case of `CSc1c(C)c(SC)n2ccncc12.Cl`, the “inhibition (INH)” value is reported as 14%. With `CSc1c(-c2ccccc2)c(SC)n2ccncc12.Cl` the inhibition was “Active”.

Same assay, conditions: Homo sapiens, HCT-116
With `CSc1c(C)c(SC)n2ccncc12` [listing 1 of 2 here] the inhibition at 10 µM was 14%. Molecule `CSc1c(Cc2ccccc2)c(SC)n2ccncc12.Cl` has an inhibition at 10 µM of 92%.

Test system: HCT-116
Test: Reduction of insulin-induced HIF-1 alpha target gene expression in human HCT116 cells assessed as decrease in VEGF expression at 10 uM by RT-PCR analysis
Assay type: functional
Details: not given
With `CCCc1c(SC)c2cnccn2c1SC.Cl` the inhibition was “Active”. `CSc1c(Cc2ccccc2)c(SC)n2ccncc12.Cl` gave an inhibition at 10 µM of 77%. For `CSc1c(-c2ccccc2)c(SC)n2ccncc12.Cl`, the inhibition was “Active”. For `CSc1c(C)c(SC)n2ccncc12` [listing 2 of 2 here], the inhibition was “inactive”.

Test system: HCT-116
Test: Reduction of insulin-induced HIF-1 alpha expression in human HCT116 cells at 10 uM by western blot analysis
Assay type: functional
Details: not given
With `CSc1c(C)c(SC)n2ccncc12.Cl` the “inhibition (INH)” value was 37%.

Same assay, conditions: Homo sapiens, HCT-116
Molecule `CCc1c(SC)c2cnccn2c1SC.Cl` has an inhibition at 10 µM of 86%. Molecule `CSc1c(C)c(SC)n2ccncc12` [listing 1 of 2 here] has an inhibition at 10 µM of 37%. Work on `CCCc1c(SC)c2cnccn2c1SC.Cl` yielded an inhibition at 10 µM of 90%. `CSc1c(Cc2ccccc2)c(SC)n2ccncc12.Cl` showed an inhibition at 10 µM of 81%. With `CSc1c(CCc2ccccc2)c(SC)n2ccncc12.Cl` the inhibition at 10 µM was 87%. Work on `CSc1c(-c2ccccc2)c(SC)n2ccncc12.Cl` yielded an inhibition at 10 µM of 3%. `CSc1c(SC)c2cnccn2c1SC.Cl` gave an inhibition at 10 µM of 6%.

Test system: HCT-116
Test: Reduction of insulin-induced HIF-1 alpha target gene expression in human HCT116 cells assessed as decrease in VEGF expression at 30 uM by RT-PCR analysis
Assay type: functional
Details: not given
In the case of `S=c1ssc(-c2cnccn2)c1-c1ccccc1`, the inhibition is reported as “Active”. With `Cc1c(-c2cnccn2)ssc1=S` [OLTIPRAZ] the inhibition at 30 µM was 36%. With `CCCc1c(-c2cnccn2)ssc1=S` the inhibition at 30 µM was 70%.

Test system: HCT-116
Test: Reduction of insulin-induced HIF-1 alpha expression in human HCT116 cells at 30 uM by western blot analysis
Assay type: functional
Details: not given
`S=c1ssc(-c2cnccn2)c1Cc1ccccc1` gave an inhibition at 30 µM of 41%. `S=c1ssc(-c2cnccn2)c1-c1ccccc1` gave an inhibition at 30 µM of 8%. `Cc1c(-c2cnccn2)ssc1=S` [OLTIPRAZ] showed an inhibition at 30 µM of 48%. With `CCCc1c(-c2cnccn2)ssc1=S` the inhibition at 30 µM was 76%. Work on `CCCCc1c(-c2cnccn2)ssc1=S` yielded an inhibition at 30 µM of 80%. For `S=c1ssc(-c2cnccn2)c1CCc1ccccc1`, the inhibition at 30 µM was 65%.

Test system: not listed separately
Test: Cytotoxicity against human HCT116 cells at 30 uM
Assay type: cell-based
Details: hct-116, 30 µM
In the case of `S=c1ssc(-c2cnccn2)c1Cc1ccccc1`, the Activity is reported as “Non-toxic”. For `S=c1ssc(-c2cnccn2)c1-c1ccccc1`, the Activity was “Non-toxic”. In the case of `Cc1c(-c2cnccn2)ssc1=S` [OLTIPRAZ], the Activity is reported as “Non-toxic”. In the case of `CCCc1c(-c2cnccn2)ssc1=S`, the Activity is reported as “Non-toxic”. In the case of `S=c1cc(-c2cnccn2)ss1`, the Activity is reported as “Toxic”. For `S=c1ssc(-c2cnccn2)c1Cc1ccc(Cl)cc1`, the Activity was “Non-toxic”. In the case of `CCCCc1c(-c2cnccn2)ssc1=S`, the Activity is reported as “Non-toxic”. With `CCc1c(-c2cnccn2)ssc1=S` the Activity was “Non-toxic”. In the case of `S=c1ssc(-c2cnccn2)c1CCc1ccccc1`, the Activity is reported as “Non-toxic”. For `Cc1ccc(Cc2c(-c3cnccn3)ssc2=S)cc1`, the Activity was “Non-toxic”. For `COc1ccc(Cc2c(-c3cnccn3)ssc2=S)cc1`, the Activity was “Non-toxic”.

Test system: not listed separately
Test: Cytotoxicity against human HCT116 cells at 3 uM
Assay type: cell-based
Details: hct-116, 3 µM
For `CC[C@@]1(O)C(=O)OCc2c1cc1n(c2=O)Cc2cc3c(CN(C)C)c(O)ccc3nc2-1` [TOPOTECAN], the Activity was “Non-toxic”. In the case of `OCc1ccc(-c2nn(Cc3ccccc3)c3ccccc23)o1`, the Activity is reported as “Non-toxic”.

Test system: HCT-116
Test: Reduction of insulin-induced HIF-1 alpha expression in human HCT116 cells at 3 uM by western blot analysis
Assay type: functional, cell-based
Details: not given
With `CC[C@@]1(O)C(=O)OCc2c1cc1n(c2=O)Cc2cc3c(CN(C)C)c(O)ccc3nc2-1` [TOPOTECAN] the inhibition was “Active”. For `OCc1ccc(-c2nn(Cc3ccccc3)c3ccccc23)o1`, the inhibition was “Active”.

Test system: HCT-116
Test: Reduction of insulin-induced HIF-1 alpha target gene expression in human HCT116 cells assessed as decrease in Glut-1 expression at 30 uM by RT-PCR analysis
Assay type: functional
Details: not given
With `S=c1ssc(-c2cnccn2)c1-c1ccccc1` the inhibition was “Active”. In the case of `Cc1c(-c2cnccn2)ssc1=S` [OLTIPRAZ], the inhibition at 30 µM is reported as 59%. With `CCCc1c(-c2cnccn2)ssc1=S` the inhibition at 30 µM was 86%.
